This note sets out measurements from patent publication EP0993437B1, “2-(4-BROMO OR 4-IODO PHENYLAMINO) BENZOIC ACID DERIVATIVES AND THEIR USE AS MEK INHIBITORS” (Warner-Lambert Company LLC, priority 1997, dated 1999).

The term IC50 denotes the concentration at which inhibition is half-maximal. Low readings indicate higher potency, high ones lower potency.

This assay has as its target MEK. Description: Cascade assay for inhibitors of the MAP kinase pathway (In Vitro). Format: biochemical. As to the method: Incorporation of ^32P into myelin basic protein (MBP) was assayed in the presence of a glutathione S-transferase fusion protein containing p44MAP kinase (GST-MAPK) and a glutathione S-transferase fusion protein containing p45MEK (GST-MEK). The assay solution contained 20 mM HEPES, pH 7.4, 10 mM MgCl2, 1-mM MnCl2, 1 mM EGTA, 50 µM [γ-^32P]ATP, 10 µg GST-MEK, 0.5 µg GST-MAPK and 40 µg MBP in a final volume of 100 µL. […] Compounds were assessed at 10 µM for ability to inhibit incorporation of ^32P.
To ascertain whether compounds were inhibiting GST-MEK or GST MAPK, two additional protocols were employed. In the first protocol, compounds were added to tubes containing GST-MEK, followed by addition of GST-MAPK, MBP and [γ-^32P]ATP.

Compound “5-Bromo-3,4-difluoro-2-(4-iodo-2-methyl-phenylamino)-N-(2-piperidin-1-yl-ethyl)-benzamide [Example 55]” displayed an IC50 of 114 nM. The compound “5-Bromo-3,4-difluoro-N-(2-hydroxy-ethyl)-2-(4-iodo-2-methyl-phenylamino)-benzamide [Example 53]” displayed an IC50 of 47 nM.

Compound “5-Fluoro-N-{3-[4-(2-hydroxy-ethyl)-piperazin-1-yl]-propyl}-2-(4-iodo-2-methyl-phenylamino)-benzamide [Example 90]” yielded an IC50 of 604 nM.

`Cc1cc(I)ccc1Nc1cc(F)ccc1C(=O)O` [Example 1, 4-Fluoro-2-(4-iodo-2-methylphenylamino)benzoic acid]: the IC50 is 19 nM.

With `O=C(O)c1cc(Cl)ccc1Nc1ccc(I)cc1Cl` [Example 5, 5-Chloro-2-(2-chloro-4-iodo-phenylamino)-benzoic acid], half-maximal inhibition (IC50) required 66 nM. For `Cc1cc(I)ccc1Nc1ccc(Cl)cc1C(=O)O` [Example 6, 5-Chloro-2-(4-iodo-2-methyl-phenylamino)-benzoic acid], the half-maximal inhibitory concentration (IC50) stood at 71 nM. To `Cc1cc(I)ccc1Nc1ccc(Br)cc1C(=O)O` [Example 8, 5-Bromo-2-(4-iodo-2-methyl-phenylamino)-benzoic acid] belongs 86 nM. As for `O=C(O)c1cc([N+](=O)[O-])ccc1Nc1ccc(I)cc1Cl` [Example 9, 2-(2-Chloro-4-iodo-phenylamino)-5-nitro-benzoic acid], the IC50 came to 97 nM. In turn, `Cc1c(Nc2cc(F)ccc2C(=O)O)ccc(I)c1F` [Example 10, 4-Fluoro-2-(3-fluoro-4-iodo-2-methyl-phenylamino)-benzoic acid] yielded an IC50 of 101 nM. `Cc1cc(I)ccc1Nc1ccc([N+](=O)[O-])cc1C(=O)O` [Example 11, 2-(4-Iodo-2-methyl-phenylamino)-5-nitro-benzoic acid] registered an IC50 of 128 nM.

Compound `O=C(O)c1cc([N+](=O)[O-])ccc1Nc1ccc(I)cc1F` [Example 12, 2-(2-Fluoro-4-iodo-phenylamino)-5-nitro-benzoic acid] registered an IC50 of 135 nM. Turning to `Cc1cc(Br)ccc1Nc1cc(F)ccc1C(=O)O` [Example 13, 2-(4-Bromo-2-methyl-phenylamino)-4-fluoro-benzoic acid], half-maximal inhibition (IC50) was put at 178 nM.

For the compound `O=C(O)c1cc([N+](=O)[O-])ccc1Nc1ccc(I)cc1Br` [Example 14, 2-(2-Bromo-4-iodo-phenylamino)-5-nitro-benzoic acid], inhibition was half-maximal at 179 nM (IC50).

The compound `Cc1cc(Br)ccc1Nc1c(C(=O)O)ccc(F)c1F` [Example 15, 2-(4-Bromo-2-methyl-phenylamino)-3,4-difluoro-benzoic acid] gave an IC50 of 194 nM. As for `Cc1cc(I)ccc1Nc1c(F)cccc1C(=O)O` [Example 16, 3-Fluoro-2-(4-iodo-2-methyl-phenylamino)-benzoic acid], the 50% inhibitory concentration (IC50) came to 323 nM. Compound `COc1cc(I)ccc1Nc1c(C(=O)O)ccc(F)c1F` [Example 17, 3,4-Difluoro-2-(4-iodo-2-methoxy-phenylamino)-benzoic acid] yielded an IC50 of 434 nM.

`Cc1cc(I)ccc1Nc1cc(Cl)ccc1C(=O)O` [Example 18, 4-Chloro-2-(4-iodo-2-methyl-phenylamino)-benzoic acid] registered a concentration for half-maximal inhibition (IC50) of 446 nM. Consider `Cc1cc(I)ccc1Nc1ccc(F)cc1C(=O)O` [Example 20, 5-Fluoro-2-(4-iodo-2-methyl-phenylamino)-benzoic acid], for which the IC50 was 557 nM. To `Cc1cc(I)ccc1Nc1ccc(I)cc1C(=O)O` [Example 21, 5-Iodo-2-(4-iodo-2-methyl-phenylamino)-benzoic acid] belongs 569 nM.

On to `Cc1c(Nc2cc(F)ccc2C(=O)O)ccc(I)c1Cl` [Example 23, 4-Fluoro-2-(3-chloro-4-iodo-2-methyl-phenylamino)-benzoic acid], for which the IC50 was 1590 nM. To `COc1ccc(Nc2ccc(I)cc2)c(C(=O)O)c1` [Example 24, 2-(4-Iodo-phenylamino)-5-methoxy-benzoic acid] belongs 1940 nM; to `O=C(O)c1cccc(Cl)c1Nc1ccc(I)cc1Cl` [Example 25, 3-Chloro-2-(2-chloro-4-iodo-phenylamino)-benzoic acid], 2360 nM; to `Cc1ccc(Nc2ccc(I)cc2C)c(C(=O)O)c1` [Example 28, 5-Methyl-2-(4-iodo-2-methyl-phenylamino)-benzoic acid], 3670 nM.

`Cc1cc(I)ccc1Nc1cccc(Cl)c1C(=O)O` [Example 29, 2-Chloro-6-(4-iodo-2-methyl-phenylamino)-benzoic acid] came in with an IC50 of 5330 nM. `Cc1cc(I)ccc1Nc1ccc(Cl)cc1C(=O)NCCO` [Example 31, 5-Chloro-N-(2-hydroxyethyl)-2-(4-iodo-2-methyl-phenylamino)-benzamide] showed an IC50 of 226 nM. In the case of `COc1ccc(NC(=O)c2ccc(OC)c([N+](=O)[O-])c2)cc1` [Example 32, 4-Methoxy-N-(4-methoxy-phenyl)-3-nitro-benzamide], half-maximal inhibition (IC50) required 28 nM. In the case of `Cc1cc(I)ccc1Nc1cc(F)ccc1C(N)=O` [Example 33, 4-Fluoro-2-(4-iodo-2-methyl-phenylamino)-benzamide], the IC50 came out at 52 nM.

As for `CNC(=O)c1ccc(F)cc1Nc1ccc(I)cc1C` [Example 34, 4-Fluoro-2-(4-iodo-2-methyl-phenylamino)-N-methyl-benzamide], the half-maximal inhibitory concentration (IC50) came to 98 nM. `CCNC(=O)c1ccc(F)cc1Nc1ccc(I)cc1C` [Example 35, N-Ethyl-4-fluoro-2-(4-iodo-2-methyl-phenylamino)-benzamide] yielded an IC50 of 121 nM. Take `Cc1cc(I)ccc1Nc1cc(F)ccc1C(=O)N(C)C` [Example 36, 4-Fluoro-2-(4-iodo-2-methyl-phenylamino)-N,N-dimethyl-benzamide]: half-maximal inhibition (IC50) was put at 129 nM. To `Cc1cc(I)ccc1Nc1cc(F)ccc1C(=O)Nc1nnn[nH]1` [Example 37, 4-Fluoro-2-(4-iodo-2-methyl-phenylamino)-N-(1H-tetrazol-5-yl)-benzamide] belongs 237 nM; to `Cc1cc(I)ccc1Nc1ccc(Br)cc1C(N)=O` [Example 38, 5-Bromo-2-(4-iodo-2-methyl-phenylamino)-benzamide], 412 nM. `Cc1cc(I)ccc1Nc1ccc(Cl)cc1C(=O)N(C)C` [Example 39, 5-Chloro-2-(4-iodo-2-methyl-phenylamino)-N,N-dimethyl-benzamide] came in with an IC50 of 497 nM. Regarding `Cc1cc(I)ccc1Nc1ccc(Cl)cc1C(=O)NCC(=O)O` [Example 40], the IC50 was found to be 651 nM. Then `CCCNC(=O)c1ccc(F)cc1Nc1ccc(I)cc1C` [Example 41, 4-Fluoro-2-(4-iodo-2-methyl-phenylamino)-N-propyl-benzamide], with 872 nM. For the compound `Cc1cc(I)ccc1Nc1ccc(Br)cc1C(=O)NCCO` [Example 42, 5-Bromo-N-(2-hydroxy-ethyl)-2-(4-iodo-2-methyl-phenylamino)-benzamide], inhibition was half-maximal at 920 nM (IC50). `CCN(CC)C(=O)c1ccc(F)cc1Nc1ccc(I)cc1C` [Example 43, N,N-Diethyl-4-fluoro-2-(4-iodo-2-methyl-phenylamino)-benzamide] displayed an IC50 of over 1000 nM. In turn, `Cc1cc(I)ccc1Nc1cc(F)ccc1C(=O)NCCCN1CCN(CCO)CC1` [Example 44, 4-Fluoro-N-{3-[4-(2-hydroxy-ethyl)-piperazin-1-yl]-propyl}-2-(4-iodo-2-methyl-phenylamino)-benzamide] gave a half-maximal inhibitory concentration (IC50) of 1480 nM.

With `CCN(CC)C(=O)c1cc([N+](=O)[O-])ccc1Nc1ccc(I)cc1C` [Example 45, N,N-Diethyl-2-(4-iodo-2-methyl-phenylamino)-5-nitro-benzamide], the IC50 came out at 1760 nM. To `CCCCNC(=O)c1ccc(F)cc1Nc1ccc(I)cc1C` [Example 46, N-Butyl-4-fluoro-2-(4-iodo-2-methyl-phenylamino)-benzamide] belongs 1810 nM; to `CCN(CC)C(=O)c1cc(Cl)ccc1Nc1ccc(I)cc1C` [Example 47, 5-Chloro-N,N-diethyl-2-(4-iodo-2-methyl-phenylamino)-benzamide], 1910 nM. `Cc1cc(I)ccc1Nc1ccc(Br)cc1C(=O)N(C)C` [Example 48, 5-Bromo-2-(4-iodo-2-methyl-phenylamino)-N,N-dimethyl-benzamide] registered a 50% inhibitory concentration (IC50) of 1940 nM. On to `Cc1cc(I)ccc1Nc1ccc(Cl)cc1CO` [Example 50, [5-Chloro-2-(4-iodo-2-methyl-phenylamino)-phenyl]-methanol], for which the half-inhibitory concentration (IC50) came out at 179 nM. In turn, `Cc1cc(I)ccc1Nc1ccc([N+](=O)[O-])cc1CO` [Example 51, [2-(4-Iodo-2-methyl-phenylamino)-5-nitro-phenyl]-methanol] came in with an IC50 of 887 nM. Then `Cc1cc(I)ccc1Nc1ccc(Br)cc1CO` [Example 52, [5-Bromo-2-(4-iodo-2-methyl-phenylamino)-phenyl]-methanol], with 2350 nM. To `Cc1cc(I)ccc1Nc1ccc(Br)cc1C(=O)NCCCN1CCN(CCO)CC1` [Example 92, 5-Bromo-N-{3-[4-(2-hydroxy-ethyl)-piperazin-1-yl]-propyl}-2-(4-iodo-2-methyl-phenylamino)-benzamide] belongs 253 nM. The compound `CCN(CC)CCNC(=O)c1cc(Cl)ccc1Nc1ccc(I)cc1C` [Example 93, 5-Chloro-N-(2-diethylamino-ethyl)-2-(4-iodo-2-methyl-phenylamino)-benzamide] yielded an IC50 of 521 nM. On to `Cc1cc(I)ccc1Nc1ccc([N+](=O)[O-])cc1C(=O)N1CCC(O)C1` (stereo not drawn) [Example 95, (3-Hydroxy-pyrrolidin-1-yl)-[2-(4-iodo-2-methyl-phenylamino)-5-nitro-phenyl]-methanone], for which the half-inhibitory concentration (IC50) worked out at 1000 nM.
